Source: patent publication US5512549A, “Glucagon-like insulinotropic peptide analogs, compositions, and methods of use” (Eli Lilly and Company, priority 1994, dated 1996)

Key:
Sprague Dawley rats = assay: Rat I.V. Hyperglycemic (150 mg/dl) Clamp Test; type: in vivo; settings: for Insulin Change AUC: 0-15 min; for GIR Change AUC: 0-30 min; for Max Insulin Change: 90 minute test period; for Duration of Insulin Effect: time average insulin change >0 ng/ml
Procedure: b) Hyperglycemic Clamp Studies
Experiments were conducted in chronically catheterized, normal, male Sprague Dawley rats weighing about 350 grams. At least a week prior to studies, surgery was performed on the rats under isoflurane anesthesia. Two catheters were implanted into the jugular vein for infusions of glucose and peptide and one catheter into the carotid artery for blood sampling. The catheters were exteriorized through the skin at the vertex of the head, filled with glycerol/heparin solution (3:1,v/v) and closed off with a one centimeter stainless steel plug. Animals were housed individually in wire mesh cages and allowed free access to standard rat chow diet and water.
Catheterized rats were fasted overnight prior to studies. On the morning of the experiment, rats were weighed and sampling tubings connected to their indwelling catheters. The tubings were enclosed in a light weight stainless steel spring for protection. During the study, rats were kept unrestrained in a plastic shoe box cage (12"×10"×12") with about one inch of bedding. After 15 minutes of acclimation, a basal sample was taken for measurement of insulin and glucose levels. At time -60 minutes, rats were given a bolus of 20% dextrose to raise plasma glucose to 150 mg/dl. The plasma glucose concentration was maintained at this level for the duration of the study by measuring the plasma glucose concentration every five minutes and adjusting the calibrated variable infusion pump accordingly. Blood samples were collected at -15 and 0 minutes for baseline measurements. Immediately after taking the zero minute sample, peptide (130-155 μM stock concentration, diluted in phosphate buffered saline) was injected via the jugular vein catheter and flushed with saline. Blood samples were taken for glucose and insulin determinations at 2, 4, 6, 8, 10, 12, 15, 20, 25, 30, 40, 50, 60, 70, 80, and 90 minutes. All blood samples were collected into syringes coated with sodium heparin, transferred into micro centrifuge tubes and placed on ice. Blood samples were then centrifuged in a micro centrifuge to separate the plasma component.
Plasma glucose levels were determined on the day of the study by the glucose oxidase method using the Beckman Glucose Analyzer 2, while the insulin concentrations were measured by a commercial kit (Diagnostic Products Corporation) with rat insulin standard.
Insulin change (the change in insulin from the baseline value) was calculated as the difference between the insulin concentration at time t and the average insulin concentration prior to injection of test substance. The area under the insulin change curve was calculated using the trapezoidal rule. Glucose infusion rate change (the percent change in the glucose infusion rate from the baseline value) was calculated as the difference between the glucose infusion rate value at time t and the average glucose infusion rate prior to injection of test substance, divided by the average glucose infusion rate prior to injection of test substance, times 100. The area under the glucose infusion rate change curve was calculated on the absolute glucose infusion rate change values (calculated as the difference between the glucose infusion rate value at time t and the glucose infusion rate prior to injection of test substance) using the trapezoidal rule. Values are listed as the mean ± the standard error of the mean (SEM).

beagles = assay: Dog I.V. Hyperglycemic (150 mg/dl) Clamp Test; type: in vivo; settings: I.V. 1.0 μg/kg
Procedure: a) Hyperglycemic Clamp Studies
Experiments were conducted in overnight-fasted, conscious, adult (1-2 years of age) male and female beagles weighing 8-15 kg. At least ten days prior to the study, animals were anesthetized with isoflurane, and a cut-down was made in the left or right inguinal region. Silastic catheters were inserted into the femoral artery and the proximal caudal femoral vein and secured with 4-0 silk suture. The free ends of the catheters were passed subcutaneously to the back using a trocar needle. The catheters were then filled with a glycerol/heparin solution (3:1, v/v; final heparin concentration of 250 KIU/ml), and the free ends were knotted and placed in a subcutaneous pocket to allow complete closure of the skin. Keflex® was administered both pre-operatively (20 mg/kg, IV and 20 mg/kg, I.M.) and post-operatively (250 mg, p.o. once daily for seven days) to prevent infections. Torbugesic (1.5 mg/kg, I.M.) was administered post-operativelyto control pain.
Blood was drawn just prior to the study day to determine the health of the animal. Only animals with hematocrits above 38% and leukocyte counts below 16,000/mm^3 were used.
The afternoon before the experiment, the free ends of the catheters were exteriorized from the subcutaneous pocket through a small incision made under local anesthesia (2% lidocaine), and the dog was fitted with a tether system jacket and collar assembly.
The morning of the experiment, the contents of the catheters were aspirated, the catheters were flushed with saline, and extension lines (protected by a stainless steel tether) were attached to the catheters. On mornings of IV injection experiments, an over-the-needle, teflon catheter was inserted percutaneously into a cephalic vein in preparation for the administration of an IV bolus of test substance. The dog was placed in a metabolic cage, and the catheter extension lines and tether were attached to a swivel system to allow the dog to move freely about the cage. At this time (-60 minutes), an exogenous infusion of glucose (50% w/v in water) was begun through the chronic venous catheter. Glucose was infused in a descending stepwise fashion over the first six minutes of the study to rapidly raise the plasma glucose concentration to 150 mg/dl. Plasma glucose concentrations were determined every 2.5 to 7.5 minutes throughout the remainder of the study, and the glucose infusion rate was adjusted appropriately to maintain the plasma glucose concentration at 150 mg/dl.
Sixty minutes after the start of the glucose infusion (time 0), test substance was administered either intravenously (1.0, 2.9, 5.0 or 10.0 μg/kg; dose dissolved in 2 ml of saline containing 0.3% dog albumin, w/v) through the previously inserted teflon catheter or subcutaneously (10 μg/kg; 150 μM in phosphate buffered saline) in the dorsal aspect of the neck.
Arterial blood samples (3.5 ml) were taken at -30, -15, 0, 2.5, 5, 7.5, 10, 12.5, 15, 20, 30, 45, 60, 75, 90, 105 and 120 minutes during the IV studies and at -30, -15, 0, 3, 6, 9, 12, 15, 20, 30, 45, 60, 75, 90, 105 and 120 minutes during the SC studies. Samples were collected in vacuum blood collection tubes containing disodium EDTA and immediately placed on ice. To prevent proteolytic cleavage of GLP-1(7-37) in the plasma samples, 1.5 ml of the EDTA containing blood were transferred to a polypropylene tube containing 40 μl of aprotinin (10,000 KIU/ml) and mixed well. The samples were centrifuged, and the resulting plasma was transferred to polypropylene test tubes and stored on ice for the duration of the study.
At the conclusion of the experiment, the animal was anesthetized (isoflurane); the catheters were flushed with fresh saline and filled with the glycerol/heparin mixture; the free ends of the catheters were knotted and placed subcutaneously as described earlier; and antibiotic was administered (300 mg Keflex®, I.M.). […]

How did the “Insulin Change AUC” value (Sprague Dawley rats; I.V. 0.05 μg/kg) turn out when GLP-1(7-37)OH was run?
Its value is 3.0 ± 1.6 ng·min/mL.

And the “GIR Change AUC” value (Sprague Dawley rats; I.V. 0.05 μg/kg)?
The value was 48 ± 22 mg/kg.

And the “Max Insulin Change” value (Sprague Dawley rats; I.V. 0.05 μg/kg)?
Its value is 1.6 ± 0.3 ng/mL.

And the “Duration of Insulin Effect” value (Sprague Dawley rats; I.V. 0.05 μg/kg)?
The value was 6 min.

And the “Insulin Change AUC” value (Sprague Dawley rats; I.V. 0.1 μg/kg)?
The value was 7.3 ± 2.8 ng·min/mL.

What about the “GIR Change AUC” value (Sprague Dawley rats; I.V. 0.1 μg/kg) of the same substance?
The value was 150 mg/kg.

And the “Max Insulin Change” value (Sprague Dawley rats; I.V. 0.1 μg/kg)?
Its value is 3.6 ± 1.2 ng/mL.

And the “Duration of Insulin Effect” value (Sprague Dawley rats; I.V. 0.1 μg/kg)?
The value was 6 min.

And the “Insulin Change AUC” value (Sprague Dawley rats; I.V. 0.2 μg/kg)?
Its value is 5.8 ± 0.9 ng·min/mL.

And the “GIR Change AUC” value (Sprague Dawley rats; I.V. 0.2 μg/kg)?
The value was 154 mg/kg.

What about the “Max Insulin Change” value (Sprague Dawley rats; I.V. 0.2 μg/kg) of the same substance?
Its value is 2.8 ± 0.1 ng/mL.

And the “Duration of Insulin Effect” value (Sprague Dawley rats; I.V. 0.2 μg/kg)?
The value was 6 min.

What about the “Insulin Change AUC” value (Sprague Dawley rats; I.V. 0.6 μg/kg) of the same substance?
The value was 14.9 ng·min/mL.

What about the “GIR Change AUC” value (Sprague Dawley rats; I.V. 0.6 μg/kg) of the same substance?
The value was 151 mg/kg.

What about the “Max Insulin Change” value (Sprague Dawley rats; I.V. 0.6 μg/kg) of the same substance?
The value was 4.9 ± 1.3 ng/mL.

And the “Duration of Insulin Effect” value (Sprague Dawley rats; I.V. 0.6 μg/kg)?
The value was 6 min.

What about the “Insulin Change AUC” value (Sprague Dawley rats; I.V. 1.0 μg/kg) of the same substance?
The value was 16.7 ng·min/mL.

And the “GIR Change AUC” value (Sprague Dawley rats; I.V. 1.0 μg/kg)?
The value was 131 mg/kg.

What about the “Max Insulin Change” value (Sprague Dawley rats; I.V. 1.0 μg/kg) of the same substance?
Its value is 7.7 ± 0.8 ng/mL.

What about the “Duration of Insulin Effect” value (Sprague Dawley rats; I.V. 1.0 μg/kg) of the same substance?
The value was 6 min.

What about the “Insulin Change AUC” value (Sprague Dawley rats; I.V. 2.0 μg/kg) of the same substance?
Its value is 11.5 ng·min/mL.

What about the “GIR Change AUC” value (Sprague Dawley rats; I.V. 2.0 μg/kg) of the same substance?
Its value is 152 mg/kg.

And the “Max Insulin Change” value (Sprague Dawley rats; I.V. 2.0 μg/kg)?
Its value is 3.6 ± 0.9 ng/mL.

What about the “Duration of Insulin Effect” value (Sprague Dawley rats; I.V. 2.0 μg/kg) of the same substance?
Its value is 6 min.

What about the “Insulin Change AUC” value (Sprague Dawley rats; I.V. 4.0 μg/kg) of the same substance?
The value was 10.4 ng·min/mL.

What about the “GIR Change AUC” value (Sprague Dawley rats; I.V. 4.0 μg/kg) of the same substance?
The value was 139 mg/kg.

What about the “Max Insulin Change” value (Sprague Dawley rats; I.V. 4.0 μg/kg) of the same substance?
Its value is 2.0 ± 0.4 ng/mL.

And the “Duration of Insulin Effect” value (Sprague Dawley rats; I.V. 4.0 μg/kg)?
Its value is 40 min.

How did the “Insulin Change AUC” value (Sprague Dawley rats; I.V. 1.0 μg/kg) turn out when “Lys^34 -N^ε -octanoyl-GLP-1(7-37)OH [Lys^34-N^ε-octanoyl-GLP-1(7-37)OH]” was run?
The value was 13.2 ng·min/mL.

And the “GIR Change AUC” value (Sprague Dawley rats; I.V. 1.0 μg/kg)?
Its value is 132 mg/kg.

And the “Max Insulin Change” value (Sprague Dawley rats; I.V. 1.0 μg/kg)?
Its value is 2.4 ± 0.8 ng/mL.

And the “Duration of Insulin Effect” value (Sprague Dawley rats; I.V. 1.0 μg/kg)?
The value was 4 min.

What about the “GIR Change AUC” value (beagles; 0-60 min, mean ± SEM) of the same substance?
The value was 463 ± 12 mg/kg.

What about the “Insulin Change AUC” value (beagles; 0-60 min, mean ± SEM) of the same substance?
Its value is 50 ± 2 ng·min/mL.

What about the “Max Insulin Change” value (beagles; 120 minute test period, mean ± SEM) of the same substance?
The value was 3.8 ± 1.0 ng/mL.

And the “Duration of Insulin Effect” value (beagles; time average insulin change consistently ≥0.5 ng/ml)?
The value was 15 min.
